Legend:
mice [1] = assay: Primary observation (Irwin) test in the mouse; format: in vivo; details: for overall effect in the Irwin test: all doses tested
Procedure: The method, which detects the first toxic dose, the active dose-range and the principal effects of a test substance on behavior and physiological function, follows that described by Irwin 1968 Psychopharmaco, 13:222-257,
3 treated groups were compared with the same control at any one time. All animals within a treatment group were observed simultaneously.
Behavioral modifications, physiological and neurotoxicity symptoms, pupil diameter and rectal temperature were recorded according to a standardized observation grid derived from that of Irwin, supra. The grid contains the following items: lethality*, convulsions*, tremor*, Straub*, sedation, excitation, abnormal gait* (rolling, tip-toe), jumps*, motor incoordination*, writhes*, piloerection*, stereotypies* (sniffing, chewing, head movements), head twitches*, scratching*, respiration*, aggressiveness*, fear, reactivity to touch, muscle tone, loss of righting reflex, ptosis, exopthalmos, loss of grasping, akinesia, catalepsy, loss of traction, loss of corneal reflex, analgesia, defecation, salivation, lacrimation, pupil diameter (Unit=1/45 mm) and rectal temperature.
Observations were performed 15, 30, 60, 120 and 180 minutes after administration of the test substance and also 24 hours later. The symptoms marked (*) were observed continuously from 0 to 15 minutes after administration. 5 mice were studied per group.
3-Butylphthalide (98.5% purity) was solubilized in 3% DMSO, 3% Tween 80 in saline (0.9% w/v NaCl) and injected into mice intraperitoneally.

mice [2] = assay: Elevated plus maze test; format: in vivo, mouse; details: for OPEN ARM Number of entries, Mean ± sem / OPEN ARM Time spent (s), Mean ± sem: 5 h and 1 h before test; for OPEN ARM Number of entries, % change / OPEN ARM Time spent, % change: versus vehicle
Description: The method, which detects anxiolytic activity, follows that described by Handley et al, 1984 (Naunyn-Schm Arch Pharm 387: 1-5. Rodents avoid open spaces (the open arms of an elevated plus-maze). Anxiolytics increase exploratory activity in the […].
The maze consists of 4 arms of equal length and width (14×5 cm) arranged in the form of a plus sign (+). Two opposite arms are enclosed by 12 cm high walls (closed arms). The 2 other arms have no walls (open arms). The maze is raised 56 cm above the floor. A mouse is placed in the centre of the plus-maze and left to explore for 5 minutes. The number of entries into the open and closed arms and the time spent in the open arms is recorded. 10 mice were studied per group. The test was performed blind.
3-n-Butylphthalide was tested at doses of 10, 30, and 80 mg/kg body weight.

[3] = molecular target: T1, human dopamine transporter (hDAT) (Homo sapiens, UniProt Q01959); assay: Dopamine uptake inhibition in CHO-Ki/hDAT cells; format: cell-based; details: 50 nM [3H]Dopamine, 10 minutes
T1 construct: expressed in transfected cells; host or cells: CHO-Ki (CHO-K1)
Procedure: CHO-Ki/hDAT cells expressing the human dopamine transporter (hDAT) were plated before the assay. Cells (2×10^5/ml) were incubated with the compound of the formula I (3-n-butylphthalide) and/or vehicle in modified Tris-HEPES buffer pH 7.1 at 25° C. for 20 minutes before addition of 50 nM [^3H]Dopamine for 10 minutes. Specific signal was determined in the presence of 10 μM nomifensine. Cells were then solubilized with 1% […] lysis buffer. Reduction of [^3H]Dopamine uptake by 50 percent or more 50%) relative to vehicle controls indicates significant inhibitory activity. Compounds were screened at 10, 1, 0.1, 0.01 and 0.001 μM.

[4] = molecular target: T2, Human recombinant norepinephrine transporter (Homo sapiens, UniProt P23975); assay: Norepinephrine uptake inhibition in MDCK cells; format: cell-based; details: 25 nM [3H]Norepinephrine, 10 minutes
T2 construct: expressed in transfected cells; host or cells: dog kidney MDCK cells
Procedure: Human recombinant norepinephrine transporter stably expressed dog kidney MDCK cells are plated one day before the assay. […] Cells in the well were then rinsed twice, solubilized with 1% SDS lysis buffer and the lysate was counted to determine [^3H]Norepinephrine uptake. Specific signal was determined in the presence of 10 μM desipramine. Reduction of [^3H]Norepinephrine uptake by 50 percent or more (≧50%) relative to vehicle controls indicates significant inhibitory activity. Compounds were screened at 10, 1, 0.1, 0.01 and 0.001 μM.

[5] = molecular target: T3, human serotonin re-uptake transporter (hSERT) (Homo sapiens, UniProt P31645); assay: Serotonin uptake inhibition in HEK-293 cells expressing hSERT; format: cell-based; details: transfected HEK-293 cells; 20 nM (3H) serotonin, 30 minutes; average +/− s.e.m.; read-out: IC50 for tritiated serotonin uptake
T3 construct: host or cells: HEK-293
Procedure: HEK-293 cells stably expressing the human serotonin re-uptake transporter (hSERT) were obtained from R. Blakely, Vanderbilt University, USA. The cells were routinely grown in Dulbeco's Modified Eagles Medium, purchased from Bioconcept, Allschwil, Switzerland containing 10% fetal calf serum, penicillin, streptomycin, L-glutamine and the antibiotic G418 and passaged by trypsinisation. One day prior to the assay cells were seeded in the above mentioned medium. Immediately prior to the assay the medium was replaced by Krebs Ringers bicarbonate buffer, purchased from Sigma Chemicals Ltd., supplemented with 35 μM pargyline, 2.2 mM CaCl2, 1 mM ascorbic acid and 5 mM N-2-hydroxyethylpiperazine-N′-2-ethanesulfonic acid (buffer called “Hepes”). Serotonin uptake into the cells was determined by addition of radio-labeled (3H) serotonin (Amersham Biosciences GE Healthcare, Slough, UK) to a concentration of 20 nM, and incubation for 30 minutes at room temperature. Following removal of unincorporated label by gentle washing three times with the above buffer, incorporated serotonin was quantified by liquid scintillation counting.
The effect of the compounds of formula I on the serotonin uptake was determined by its inclusion in the assay at a range of concentrations between 0.03 and 100 μM for 10 minutes prior to and during the addition of (3H) serotonin/citalopram. Serotonin uptake via the transporter was inhibited by ligustilide, 3-butylphthalide, senkyunolide A, senkyunolide C, senkyunolide B, and cnidilide, respectively, in a dose dependent manner, with IC50 values as shown in Table 2.

[6] = 100 mg/kg, 15 to 60 minutes after administration

T3 sequence (P31645 whole entry): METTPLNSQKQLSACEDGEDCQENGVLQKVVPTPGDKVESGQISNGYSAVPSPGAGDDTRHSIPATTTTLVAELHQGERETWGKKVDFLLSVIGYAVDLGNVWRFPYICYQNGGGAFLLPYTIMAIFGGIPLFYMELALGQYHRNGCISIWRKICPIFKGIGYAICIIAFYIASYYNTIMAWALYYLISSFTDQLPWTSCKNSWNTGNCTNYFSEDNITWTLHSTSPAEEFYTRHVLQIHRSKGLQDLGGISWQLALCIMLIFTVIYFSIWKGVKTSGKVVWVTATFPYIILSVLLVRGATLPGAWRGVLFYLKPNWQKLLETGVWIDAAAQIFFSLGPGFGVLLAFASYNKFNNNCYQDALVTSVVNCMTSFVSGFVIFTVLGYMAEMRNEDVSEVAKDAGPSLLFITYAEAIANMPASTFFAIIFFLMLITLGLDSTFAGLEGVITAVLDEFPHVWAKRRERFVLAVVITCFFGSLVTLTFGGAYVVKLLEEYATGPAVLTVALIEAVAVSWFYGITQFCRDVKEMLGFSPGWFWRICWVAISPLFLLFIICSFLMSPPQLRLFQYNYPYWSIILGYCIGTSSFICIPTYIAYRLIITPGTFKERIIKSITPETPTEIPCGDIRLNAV
T2 sequence (P23975 whole entry): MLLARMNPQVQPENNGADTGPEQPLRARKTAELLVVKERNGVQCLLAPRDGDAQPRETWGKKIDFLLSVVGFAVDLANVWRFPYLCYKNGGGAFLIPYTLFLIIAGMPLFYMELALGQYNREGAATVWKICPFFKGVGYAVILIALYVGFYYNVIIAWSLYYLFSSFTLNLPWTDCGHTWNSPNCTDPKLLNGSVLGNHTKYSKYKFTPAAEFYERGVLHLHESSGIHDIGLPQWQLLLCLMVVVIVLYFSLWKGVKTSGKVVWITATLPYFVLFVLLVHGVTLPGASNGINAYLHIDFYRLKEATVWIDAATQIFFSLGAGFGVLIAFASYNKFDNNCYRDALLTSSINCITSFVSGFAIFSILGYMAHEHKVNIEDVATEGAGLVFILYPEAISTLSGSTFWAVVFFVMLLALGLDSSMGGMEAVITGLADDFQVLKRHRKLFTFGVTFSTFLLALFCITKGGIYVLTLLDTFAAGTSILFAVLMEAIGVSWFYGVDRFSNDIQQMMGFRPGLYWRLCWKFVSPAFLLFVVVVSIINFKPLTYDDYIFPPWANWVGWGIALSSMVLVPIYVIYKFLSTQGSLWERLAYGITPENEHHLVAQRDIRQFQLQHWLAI
T1 sequence (Q01959 whole entry): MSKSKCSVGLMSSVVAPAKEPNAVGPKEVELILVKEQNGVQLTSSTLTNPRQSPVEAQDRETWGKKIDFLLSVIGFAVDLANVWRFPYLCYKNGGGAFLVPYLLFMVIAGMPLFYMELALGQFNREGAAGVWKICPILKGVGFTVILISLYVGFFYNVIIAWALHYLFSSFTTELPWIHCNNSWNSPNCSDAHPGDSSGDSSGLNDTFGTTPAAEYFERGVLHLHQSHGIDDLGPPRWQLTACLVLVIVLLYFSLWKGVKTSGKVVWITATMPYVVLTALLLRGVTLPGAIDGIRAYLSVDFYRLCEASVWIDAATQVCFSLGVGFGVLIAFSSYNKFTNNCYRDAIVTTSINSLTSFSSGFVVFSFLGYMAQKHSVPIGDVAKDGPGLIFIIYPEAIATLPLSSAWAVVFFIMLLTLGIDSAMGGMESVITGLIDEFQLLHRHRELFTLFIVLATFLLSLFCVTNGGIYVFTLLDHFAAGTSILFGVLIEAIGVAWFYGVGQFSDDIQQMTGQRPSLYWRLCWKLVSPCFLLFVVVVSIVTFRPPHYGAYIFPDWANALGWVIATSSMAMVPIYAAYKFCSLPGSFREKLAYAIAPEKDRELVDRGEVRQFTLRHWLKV

**Q.** Which muscle tone (mice [1]; 100 mg/kg, 15 to 60 minutes) does the source give for `CCCC[C@@H]1OC(=O)c2ccccc21` (stereo in doubt) [3-n-butylphthalide, 3-n-Butylphthalide] here?
**A.** The muscle tone was “reduced muscle tone”.

**Q.** And the sedation (mice [1]; [6])?
**A.** The sedation was “slight sedative effects”.

**Q.** And the muscle tone (mice [1]; 200 mg/kg)?
**A.** Its muscle tone is “reduced muscle tone”.

**Q.** And the fear (mice [1]; 200 mg/kg, after 60 minutes)?
**A.** Its fear is “reduced fear”.

**Q.** And the sedation (mice [1]; 200 mg/kg, up to 120 minutes)?
**A.** Its sedation is “moderate sedative effects”.

**Q.** What about the sedation (mice [1]; 300 mg/kg, 15 minutes and 30 minutes) of the same compound?
**A.** Its sedation is “marked sedation”.

**Q.** What about the sedation (mice [1]; 300 mg/kg, 60 minutes and 120 minutes) of the same compound?
**A.** The sedation was “moderate sedation”.

**Q.** And the fear (mice [1]; 300 mg/kg, 120 minutes)?
**A.** Its fear is “reduced”.

**Q.** And the muscle tone (mice [1]; 300 mg/kg, 120 minutes)?
**A.** Its muscle tone is “reduced”.

**Q.** And the sedation (mice [1]; 300 mg/kg, 180 minutes)?
**A.** The sedation was “slight sedation”.

**Q.** And the “overall effect in the Irwin test” value (mice [1])?
**A.** Its value is “dose dependent sedative and muscle relaxant effect”.

**Q.** What about the “overall effect in the Irwin test” value (mice [1]; listed as 3-butylphthalide) of the same compound?
**A.** Its value is “dose dependent sedative, fear reducing and muscle relaxant effect”.

**Q.** What about the “OPEN ARM Number of entries, Mean ± sem” value (mice [2]; 10 mg/kg p.o. −24 h) of the same compound?
**A.** Its value is 3.5 ± 0.7.

**Q.** And the “OPEN ARM Time spent (s), Mean ± sem” value (mice [2]; 10 mg/kg p.o. −24 h)?
**A.** Its value is 24.3 ± 4.6 s.

**Q.** What about the “OPEN ARM Number of entries, % change” value (mice [2]; 10 mg/kg p.o.) of the same compound?
**A.** Its value is “+46%”.

**Q.** And the “OPEN ARM Time spent, % change” value (mice [2]; 10 mg/kg p.o.)?
**A.** Its value is “+34%”.

**Q.** What about the “OPEN ARM Number of entries, Mean ± sem” value (mice [2]; 30 mg/kg p.o. −24 h) of the same compound?
**A.** The value was 3.1 ± 0.5.

**Q.** What about the “OPEN ARM Time spent (s), Mean ± sem” value (mice [2]; 30 mg/kg p.o. −24 h) of the same compound?
**A.** The value was 23.0 ± 3.8 s.

**Q.** And the “OPEN ARM Number of entries, % change” value (mice [2]; 30 mg/kg p.o.)?
**A.** Its value is “+29%”.

**Q.** And the “OPEN ARM Time spent, % change” value (mice [2]; 30 mg/kg p.o.)?
**A.** Its value is “+26%”.

**Q.** What about the “OPEN ARM Number of entries, Mean ± sem” value (mice [2]; 80 mg/kg p.o. −24 h) of the same compound?
**A.** Its value is 3.0 ± 0.8.

**Q.** What about the “OPEN ARM Time spent (s), Mean ± sem” value (mice [2]; 80 mg/kg p.o. −24 h) of the same compound?
**A.** Its value is 26.4 ± 5.3 s.

**Q.** And the “OPEN ARM Number of entries, % change” value (mice [2]; 80 mg/kg p.o.)?
**A.** Its value is “+25%”.

**Q.** What about the “OPEN ARM Time spent, % change” value (mice [2]; 80 mg/kg p.o.) of the same compound?
**A.** Its value is “+45%”.

**Q.** And the anxiolytic activity (mice [2]; 10, 30 and 80 mg/kg)?
**A.** The anxiolytic activity was “moderate anxiolytic activity”.

**Q.** What about the “entries into the closed arm” value (mice [2]; 10, 30 and 80 mg/kg) of the same compound?
**A.** The value was “no effect”.

**Q.** And the “number of entries and time spent in the open arm (overall)” value (mice [2]; 10, 30 and 80 mg/kg)?
**A.** Its value is “trend to moderately increase”.

**Q.** And the IC50 [3]?
**A.** Its IC50 is 22 µM.

**Q.** And the IC50 [4]?
**A.** The IC50 was 23.7 µM.

**Q.** What about the IC50 [5] of the same compound?
**A.** Its IC50 is 35.2 µM.

**Q.** Which results are given for `CCC/C=C1\OC(=O)C2=C1CCC=C2` [Ligustilide]?
**A.** sedation (mice [1]; 30 mg/kg, 30 minutes): slight sedation; muscle tone (mice [1]; 100 mg/kg, 15 to 60 minutes): decreased muscle tone; sedation (mice [1]; [6]): slight sedation; muscle tone (mice [1]; 200 mg/kg): decreased muscle tone; sedation (mice [1]; 200 mg/kg, 180 minutes): slight; sedation (mice [1]; 200 mg/kg, up to 120 minutes): slight-to-moderate; sedation (mice [1]; 300 mg/kg, 15 to 60 minutes): moderate; muscle tone (mice [1]; 300 mg/kg, 15 to 180 minutes): decreased muscle tone; sedation (mice [1]; 300 mg/kg, 120 to 180 minutes): slight; overall effect in the Irwin test (mice [1]): dose dependent sedative and muscle relaxant effect; IC50 [5]: 20.4 µM
